Test results reported in patent US5990083A, “Multicatalytic protease inhibitors” (Cephalon, Inc., priority 1997, dated 1999).
Several values for one entry are separate records, joined by “and”; a condition that tells them apart may be missing. Equal entries are not always repeated.

How the values were obtained:
[1] = tested on: control soleus muscle; assay: Effect of MCP inhibitors on control muscle protein content; type: in vivo, rat; conditions: Table 1; treated soleus versus vehicle-injected contralateral muscle
Description: Juvenile female Sprague-Dawley rates (80-90 g) were tail-cast, hind limb suspended as in Jetspers, S. R. and Tischler, M. E., (1984) J. Appl. Physiol. 57: 1472-1479. The animal's hind limbs were elevated above the floor of the cage with each animal housed individually. Animals had free access to food and water, and were weighed at the time of suspension and at time of termination. During the suspension period the animals were checked daily to ensure that their toes were not touching the floor of the cage, and that there was no swelling of the tail due to the cast.
Animals were treated as in group B, except that 1 mM MCP inhibitor, contained in dimethysulfoxide (DMSO), was injected into the soleus of one leg and DMSO only into the contralateral soleus. Thus each experiment consisted of two control groups and the testing of MCP inhibitors of the invention. The completion of five such experiments with different pairs of inhibitors provided for an "n" value of 10 for testing each MCP inhibitor and with each tested in two different shipments of animals.
After the animal was sacrificed, the soleus was excised, trimmed of fat and connective tissue, and carefully weighed. The muscle was then homogenized in 10% trichloroacetic acid (TCA) and the precipitated protein pelleted by centrifugation. The pellet was then washed once with 10% TCA and once with ethanol:ether (1:1). The final pellet was solubilized in 4 ml of 1N sodium hydroxide. The sample was then analyzed for protein content by the biuret procedure, using albumin as a standard.
The effect of MCP inhibitors on total muscle protein content was examined primarily by paired comparison with the untreated contralateral muscle. The ratio of contents was calculated and then analyzed statistically by analysis of variance ("ANOVA"). The left leg was always the treated leg so that the protein content ratios could be compared to the non-treated control animals as well. In this way, a significant difference can be shown by comparing the protein content of the two legs, as well as the relative effectiveness of the tested MCP inhibitors. […]

[2] = target: T1, human MCP (Homo sapiens, UniProt P28074+Q99436); assay: Determination of IC50 values for MCP inhibitors (chymotrypsin-like or trypsin-like activity of MCP); type: biochemical; conditions: Table 5, first series; enzyme incubated with inhibitor 15 minutes at 37° C. prior to substrate
T1 construct: Samples of human liver and brain obtained post-mortem were used for isolation and partial purification of MCP; from tissue; host or cells: human liver and brain, post-mortem
Experimental: Samples of human liver and brain obtained post-mortem were used for isolation and partial purification of MCP by ion-exchange chromatography, ammonium sulfate precipitation, and gel filtration (e.g., Driscoll and Goldberg, Proc. Natl. Acad. Sci. 86, 787-791 (1989); Yamamoto et al., Biochim, Biophys. Acta 882, 297-304 (1986). For either starting material, tissue was homogenized in 10 volumes of 20 mM Tris-HCl (pH 7.5) containing 20% glycerol. Following centrifugation at 40,000×g for 30 minutes, proteolytic activity of the chymotrypsin-like component of MCP could be detected in the supernatant (see below). The supernatant was fractionated on a DEAE-Sepharose Fast Flow column equilibrated in homogenization buffer. For each liter of supernatant, 250 ml of resin was used. Following sample loading, the column was washed with ^~ 10 volumes homogenization buffer, and proteins were eluted with a linear NaCl gradient of from 0 to 400 mM (21 for 250 ml resin). Fractions were assayed for MCP activity, and the active fractions were pooled and subjected to precipitation with (NH4)2 SO4 at 80% saturation. Precipitated proteins were collected by centrifugation, resuspended in homogenization buffer, and loaded on a Sephacryl S300HR column (500 ml resin volume) that had been standardized using bovine serum albumin (68 kDa). A single peak of MCP activity was eluted with a molecular weight of ^~ 650 kDa. This preparation was free of other measurable proteolytic activities and maintained its MCP activity upon storage at 4° C. for >6 months. This preparation was used for most of the experiments. Further fractionation of the preparation on an hydroxyapatite-Ultrogel column (Yamamoto et al., supra) yielded a more highly purified enzyme, which according to denaturing SDS-polyacrylamide gel electrophoresis was comprised of the expected >10 subunits ranging in Mr from 20 to 35 kDa.
The procedure for MPC isolation described above generated an enzyme complex whose proteolytic activities were latent, but which could be activated by addition of low concentrations (0.02-0.05%) of SDS (Yamamoto et al., supra). The chymotrypsin-like activity was assayed according to the following procedure: in 96 well microtiter plates, human MCP was diluted 4 to 10-fold in homogenization buffer containing 0.04% SDS. A calorimetric substrate MeOSuc-EVKM-para-nitroanilide (methoxysuccinyl-Glu-Val-Lys-Met-pNa), purchased from Bachem Bioscience Inc., King of Prussia, Pennsylvania was added to a final concentration of 100 μM from a stock solution of 10 mM in dimethylsulfoxide. Reaction volumes were 200 μl per well. After incubation for various periods of time at 37° C., the concentration of free pNa was determined on a Biotech EL-340 microplate reader, reading absorption at 490 nm. Protease activity was determined under conditions in which substrate hydrolysis increased linearly with time and the change in absorption was proportional to the concentration of free pNa. Alternatively, a fluorogenic substrate was used, methoxysuccinyl-Phe-Leu-Phe-amidomethylcoumarin (Enzyme Systems Products, Dublin, Calif.), and the change in fluorescence monitored at an excitation of 390 nm, and an emission at 460 nm.
The trypsin-like activity of human MCP was assayed as described above with the following modifications. Reactions were carried out in Tris-glycerol buffer (pH 9.5) supplemented with 1 mM 2-mercaptoethanol, and the substrate was a fluorogenic substrate, Benzyloxycarbonyl--Phe--Arg--AMC (100 μM).
After incubation for various periods of time at 37° C., the concentration of free AMC was determined on a Fluoroskan II spectrofluorimeter with an excitation filter of 390 nm and an emission filter of 460 nm. Protease activity was determined under conditions in which substrate hydrolysis increased linearly with time and the change in fluorescence was proportional to the concentration of free AMC. […]

SMILES	Protein, Treatment (control muscle) [1] [mg/muscle]	IC50 [2]
CC(C)C[C@@H](C=O)NC(=O)[C@H](CCCNC(=N)N[N+](=O)[O-])NC(=O)C(CCCCCCCCC#N)C1CCCC1 (stereo partly drawn) [Compound 14, 10-cyano-2-cyclopentyldecanoyl-N^g-nitro-L-arginyl-L-leucinal]	6.1	7 nM and 6 nM
COC(=O)CCCCCCCC(C(=O)N[C@@H](CCCNC(=N)NS(=O)(=O)c1c(C)c(C)c2c(c1C)CCC(C)(C)O2)C(=O)N[C@H](C=O)CC(C)C)C1CCCC1 (stereo partly drawn) [Compound 20, 9-Methoxycarbonyl-2-cyclopentyl-nonanoyl-N^g-(2,2,5,7,8-pentamethylchroman-6-sulfonyl)-L-arginyl-L-leucinal]	5.9	10 nM
